Measurements as given in patent US20230220021A1, “CYCLIC PEPTIDE INHIBITORS OF PSD-95 AND USES THEREOF” (University of Copenhagen, priority 2020, published 2023).
One block for each compound: values may come before it. Where a SMILES comes first, the peptide text is derived from it. Where no end group is shown, it is not given here. [ ]: non-standard residue; d: D form.

What was measured:
Assay type in all cases: binding
PSD-95-PDZ2 [1] = molecular target: T1, PSD-95-PDZ2 (Homo sapiens, UniProt P78352); experiment: Isothermal titration calorimetry (ITC)
T1 construct: 7xHis (N); made in house; host or cells: Escherichia coli B21 pLys (for the mutants, 'as previously described')
Protocol: Isothermal titration calorimetry (ITC). The ITC assays were performed in NaPi 50 nM, 50 nM NaCl, pH 7.2 buffer filtered with a Corning® bottle-top vacuum filter system of a pore size of 0.22 μM, that was used to dissolve the peptides. Proteins were dialyzed against this buffer using Amicon® Ultra-15 centrifugal filter units, with a MWCO 3000 Da.
This assay was performed on an ITC200. The instrument differential power (DP) was set to 10 and the syringe rotating speed to 600 RPM. The assay setup consisted of introducing the protein inside the cell and the peptide (titrant) on the syringe. Calorimetry was performed at 25° C. Each analysis was performed in triplicates. Furthermore, several runs of peptide into buffer were performed in order to remove injection residual heat. Runs were analyzed with Origin 7.0 software (OriginLab).

PSD-95-PDZ2 [2] = molecular target: T1, PSD-95-PDZ2; experiment: Fluorescence polarization (FP) competition assay against cyclic nNOS TAMRA probe; details: FP competition, cyclic nNOS TAMRA probe; mean of triplicates; N.B. = not binding; read-out: Ki
PSD-95-PDZ2 [3] = molecular target: T2, PSD-95-PDZ2 (Homo sapiens, UniProt P78352, V178C); experiment: SPOT peptide array screening with TAMRA labelled PSD-95-PDZ2; details: non-proteogenic AA scan, Hit1(T112W T116E) peptide scaffold, SPOT array incubated with TAMRA-labelled PSD-95-PDZ2
T2 construct: screened with the TAMRA labelled PSD-95-PDZ2-V178C domain; 7xHis (N); made in house
Summary of the method: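 First, arrays were blocked 1 h and scanned to record background. Next, 50 nM labelled PDZ2-V178C in PBS pH 7.2 with 0.5% BSA bound for 1 h protected from light. Finally, after washes, 532 nm fluorescence was measured and background-corrected.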

fold improved binding affinity compared to the wild-type peptide (PSD-95-PDZ2 [1]; ITC Kd): 75 fold
Compound: CC[C@H](C)[C@@H]1NC(=O)[C@H]([C@@H](C)O)NC(=O)[C@H](CCCCN)NC(=O)[C@@H]2CCCN2C(=O)[C@H](CCC(=O)O)NC(=O)CNC(=O)[C@H](CC(=O)O)NC(=O)CNC(=O)[C@H](Cc2c[nH]c3ccccc23)NC(=O)[C@H](Cc2ccccc2)NC(=O)[C@H]([C@@H](C)O)NC(=O)[C@H]([C@@H](C)O)NC(=O)[C@H](CCC(=O)O)NC(=O)[C@H](CC(C)C)NC(=O)[C@H](Cc2cncn2C)NC(=O)[C@H]([C@@H](C)O)NC(=O)[C@H](CCC(N)=O)NC(=O)CNC(=O)[C@H]2CCCN2C(=O)[C@H](CCC(N)=O)NC(=O)[C@H]([C@@H](C)O)NC(=O)[C@H](C(C)C)NC(=O)[C@H](CCCNC(=N)N)NC1=O [SEQ ID NO: 16]

Ki (PSD-95-PDZ2 [2]): 110 nM
ΔH (PSD-95-PDZ2 [1]; ITC, 25° C.): -7.208 ± 0.8381 kcal/mol
−ΔS*T (PSD-95-PDZ2 [1]; ITC, 25° C.): -2.1487 ± 0.759 kcal/mol
Kd (PSD-95-PDZ2 [1]; ITC, 25° C., read-out: Kd): 139 ± 18.2 nM
Average (fluorescence raw data) (PSD-95-PDZ2 [3]; average of Pep. 1-3): 10.70 10^6
Fluor. Pep. 1 (fluorescence raw data) (PSD-95-PDZ2 [3]; replicate peptide 1): 9.88 10^6
Fluor. Pep. 2 (fluorescence raw data) (PSD-95-PDZ2 [3]; replicate peptide 2): 12.86 10^6
Fluor. Pep. 3 (fluorescence raw data) (PSD-95-PDZ2 [3]; replicate peptide 3): 9.36 10^6
Compound: CC[C@H](C)[C@@H]1NC(=O)[C@H]([C@@H](C)O)NC(=O)[C@H](CCCCN)NC(=O)[C@@H]2CCCN2C(=O)[C@H](CCC(=O)O)NC(=O)CNC(=O)[C@H](CC(=O)O)NC(=O)CNC(=O)[C@H](Cc2c[nH]c3ccccc23)NC(=O)[C@H](Cc2ccccc2)NC(=O)[C@H]([C@@H](C)O)NC(=O)[C@H]([C@@H](C)O)NC(=O)[C@H](CCC(=O)O)NC(=O)[C@H](CC(C)C)NC(=O)[C@H](Cc2c[nH]cn2)NC(=O)[C@H]([C@@H](C)O)NC(=O)[C@H](CCC(N)=O)NC(=O)CNC(=O)[C@H]2CCCN2C(=O)[C@H](CCC(N)=O)NC(=O)[C@H]([C@@H](C)O)NC(=O)[C@H](C(C)C)NC(=O)[C@H](CCCNC(=N)N)NC1=O [compound 14] (cyclo(THLETTFWGDGEPKTIRVTQ[dP]GQ))

ΔH (PSD-95-PDZ2 [1]; ITC, 25° C.): -6.6378 ± 0.1229 kcal/mol
−ΔS*T (PSD-95-PDZ2 [1]; ITC, 25° C.): -3.6598 ± 0.239 kcal/mol
Compound: CC[C@H](C)[C@@H]1NC(=O)[C@H]([C@@H](C)O)NC(=O)[C@H](CCCCN)NC(=O)[C@@H]2CCCN2C(=O)[C@H](CCC(=O)O)NC(=O)CNC(=O)[C@H](CC(=O)O)NC(=O)CNC(=O)[C@H](Cc2c[nH]c3ccccc23)NC(=O)[C@H](Cc2ccccc2)NC(=O)[C@H]([C@@H](C)O)NC(=O)[C@H]([C@@H](C)O)NC(=O)[C@H](CCC(=O)O)NC(=O)[C@H](CC(C)C)NC(=O)[C@H](Cc2cncn2C)NC(=O)[C@H]([C@@H](C)O)NC(=O)[C@H](CCC(N)=O)NC(=O)CNC(=O)[C@H]2CCCN2C(=O)[C@H](CCC(N)=O)NC(=O)[C@H]([C@@H](C)O)NC(=O)[C@H](C(C)C)NC(=O)[C@H](CCCNC(=N)N)NC1=O [compound 16]

affinity (Kd) by ITC (PSD-95-PDZ2 [1]; 25° C., tested up to 100 μM): did not show binding
Compound: THLETTFTGDGTPKTIRVTQpGQE (THLETTFTGDGTPKTIRVTQ[dP]GQE) [SEQ ID NO: 137]
